These compounds were tested against HCV NS3 protease (UniProt P26663). Conditions: Table 6.
HCV NS3 protease, sequence (P26663 1027-1206, other chains not shown): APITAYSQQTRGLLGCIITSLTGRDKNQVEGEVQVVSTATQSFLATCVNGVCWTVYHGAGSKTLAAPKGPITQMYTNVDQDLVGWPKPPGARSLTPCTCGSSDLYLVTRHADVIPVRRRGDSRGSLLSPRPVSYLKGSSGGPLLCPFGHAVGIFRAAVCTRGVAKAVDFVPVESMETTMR
Type: biochemical, HCV genotype 1b
Set-up: rows headed: IC50 (μM); IC50 (μM)
Method: Recombinant HCV NS3 Protease/NS4A Cofactor Peptide Radiometric Assay
The enzyme was cloned, expressed and prepared according to the protocol described in Example 36. The enzyme was stored at −80° C., thawed on ice and diluted just prior to use in the assay buffer containing the NS4A cofactor peptide.
The substrate used for the NS3 protease/NS4A cofactor peptide radiometric assay, DDIVPC-SMSYTW, is cleaved between the cysteine and the serine residues by the enzyme. The sequence DDIVPC-SMSYTW corresponds to the NS5A/NS5B natural cleavage site in which the cysteine residue in P2 has been substituted for a proline. […] (molar ratio enzyme:cofactor 1:100) in the absence or presence of inhibitors. The separation of substrate from products is performed by adding avidin-coated agarose beads to the assay mixture followed by filtration. The amount of SMS[^125I-Y]TW product found in the filtrate allows for the calculation of the percentage of substrate conversion and of the percentage of inhibition.
The enzymatic reaction was initiated by the addition of the enzyme/NS4A peptide solution and the assay mixture was incubated for 40 min at 23° C. under gentle agitation. Ten (10) μL of 0.5N NaOH were added and 10 μL 1 M MES, pH 5.8 were added to quench the enzymatic reaction.
A non-linear curve fit with the Hill model was applied to the inhibition-concentration data, and the 50% effective concentration (IC50) was calculated by the use of SAS software (Statistical Software System; SAS Institute, Inc. Cary, N.C.). […]
The NS2-NS5B-3′ non coding region was cloned by RT-PCR into the pCR®3 vector (Invitrogen) using RNA extracted from the serum of an HCV genotype 1b infected individual (provided by Dr. Bernard Willems, Hôpital St-Luc, Montréal, Québec, Canada). The NS3-NS4A DNA region was then subcloned by PCR into the pFastBac™ HTa baculovirus expression vector (Gibco/BRL). The vector sequence includes a region encoding a 28-residue N-terminal sequence which contains a hexahistidine tag. The Bac-to-Bac™ baculovirus expression system (Gibco/BRL) was used to produce the recombinant baculovirus. The full length mature NS3 and NS4A heterodimer protein (His-NS3-NS4AFL) was expressed by infecting 10^6 Sf21 cells/mL with the recombinant baculovirus at a multiplicity of infection of 0.1-0.2 at 27° C. The infected culture was harvested 48 to 64 h later by centrifugation at 4° C. The cell pellet was homogenized in 50 mM NaPO4, pH 7.5, 40% glycerol (w/v), 2 mM β-mercaptoethanol, in presence of a cocktail of protease inhibitors. His-NS3-NS4AFL was then extracted from the cell lysate with 1.5% NP-40, 0.5% Triton X-100, 0.5M NaCl, and a DNase treatment. After ultracentrifugation, the soluble extract was diluted 4-fold and bound on a Pharmacia Hi-Trap Ni-chelating column. […] The His-NS3-NS4AFL was stored at −80° C. in 50 mM sodium phosphate, pH 7.5, 10% (w/v) glycerol, 0.5 M NaCl, 0.25 M imidazole, 0.1% NP-40. It was thawed on ice and diluted just prior to use. The protease activity of His-NS3-NS4AFL was assayed in 50 mM Tris-HCl, pH 8.0, 0.25 M sodium citrate, 0.01% (w/v) n-dodecyl-β-D-maltoside, 1 mM TCEP. Five (5) μM of the internally quenched substrate anthranilyl-DDIVPAbu[C(O)—O]-AMY(3-NO2)TW-OH in presence of various concentrations of inhibitor were incubated with 1.5 nM of His-NS3-NS4AFL for 45 min at 23° C. […] The reaction was terminated with the addition of 1M MES, pH 5.8. Fluorescence of the N-terminal product was monitored on a Perkin-Elmer LS-50B fluorometer equipped with a 96-well plate reader (excitation wavelength: 325 nm; emission wavelength: 423 nm).
The following tables list compounds representative of the invention.
In the case of `C=CC1CC1(NC(=O)C1CC(Oc2cc(-c3csc(NC(C)=O)n3)nc3cc(N(C)C)ccc23)CN1C(=O)C(NC(=O)OC(C)(C)C)C(C)(C)C)C(=O)O` (stereo not drawn) [compound 628], the IC50 is reported as 11 nM.
In the case of `C=CC1CC1(NC(=O)C1CC(Oc2cc(-c3csc(NC(C)C)n3)nc3cc(N(C)C)ccc23)CN1C(=O)C(NC(=O)OC(C)(C)C)C(C)(C)C)C(=O)O` (stereo not drawn) [compound 629], the IC50 is reported as 20 nM.
Work on `C=CC1CC1(NC(=O)C1CC(Oc2cc(-c3csc(NC(C)=O)n3)nc3cc(N(CC)CC)ccc23)CN1C(=O)C(NC(=O)OC(C)(C)C)C(C)(C)C)C(=O)O` (stereo not drawn) [compound 630] yielded an IC50 of 43 nM.

Same assay, conditions: Table 7
`C=CC1CC1(NC(=O)C1CC(Oc2cc(-c3cnn(C)c3)nc3cc(OC)ccc23)CN1C(=O)C(NC(=O)OC(C)(C)C)C(C)(C)C)C(=O)O` (stereo not drawn) [compound 701] was tested, and the IC50 was 28 nM.
Compound `C=CC1CC1(NC(=O)C1CC(Oc2cc(C=Cc3ccccc3)nc3cc(OC)ccc23)CN1C(=O)C(NC(=O)OC(C)(C)C)C(C)(C)C)C(=O)O` (stereo not drawn) [compound 702] has an IC50 of 100 nM.
Work on `C=CC1CC1(NC(=O)C1CC(Oc2cc(OCC)nc3cc(OC)ccc23)CN1C(=O)C(NC(=O)OC(C)(C)C)C(C)(C)C)C(=O)O` (stereo not drawn) [compound 703] yielded an IC50 of 47 nM.
`C=CC1CC1(NC(=O)C1CC(Oc2cc(N3CCc4ccccc43)nc3cc(OC)ccc23)CN1C(=O)C(NC(=O)OC(C)(C)C)C(C)(C)C)C(=O)O` (stereo not drawn) [compound 704] was tested, and the IC50 was 240 nM.
For `C=CC1CC1(NC(=O)C1CC(Oc2cc(N3CCOCC3)nc3cc(OC)ccc23)CN1C(=O)C(NC(=O)OC(C)(C)C)C(C)(C)C)C(=O)O` (stereo not drawn) [compound 705], the IC50 was 130 nM.
`C=CC1CC1(NC(=O)C1CC(Oc2cc(-c3cccs3)nc3cc(OC)ccc23)CN1C(=O)C(NC(=O)OC(C)(C)C)C(C)(C)C)C(=O)O` (stereo not drawn) [compound 706] was tested, and the IC50 was 32 nM.
With `C=CC1CC1(NC(=O)C1CC(Oc2cc(-c3nccs3)nc3cc(OC)ccc23)CN1C(=O)C(NC(=O)OC(C)(C)C)C(C)(C)C)C(=O)O` (stereo not drawn) [compound 707] the IC50 was 23 nM.
With `C=CC1CC1(NC(=O)C1CC(Oc2cc(N(C)c3ccccc3)nc3cc(OC)ccc23)CN1C(=O)C(NC(=O)OC(C)(C)C)C(C)(C)C)C(=O)O` (stereo not drawn) [compound 708] the IC50 was 150 nM.
In the case of `C=CC1CC1(NC(=O)C1CC(Oc2cc(-c3csc(N)n3)nc3cc(OC)ccc23)CN1C(=O)C(NC(=O)OC(C)(C)C)C(C)(C)C)C(=O)O` (stereo not drawn) [compound 709], the IC50 is reported as 21 nM.
Compound `C=CC1C[C@]1(NC(=O)[C@@H]1C[C@@H](Oc2cc(C(=O)O)nc3cc(OC)ccc23)CN1C(=O)[C@@H](NC(=O)OC(C)(C)C)C(C)(C)C)C(=O)O` (stereo partly drawn) [compound 710] has an IC50 of 685 nM.
For `C=CC1CC1(NC(=O)C1CC(Oc2cc(-c3csc(C)n3)nc3cc(OC)ccc23)CN1C(=O)C(NC(=O)OC(C)(C)C)C(C)(C)C)C(=O)O` (stereo not drawn) [compound 711], the IC50 was 16 nM.
`C=CC1C[C@]1(NC(=O)[C@@H]1C[C@@H](Oc2cc(N(C)C)nc3cc(OC)ccc23)CN1C(=O)[C@@H](NC(=O)OC(C)(C)C)C(C)(C)C)C(=O)O` (stereo partly drawn) [compound 712] showed an IC50 of 100 nM.
For `C=CC1CC1(NC(=O)C1CC(Oc2cc(-c3cscn3)nc3cc(OC)ccc23)CN1C(=O)C(NC(=O)OC(C)(C)C)C(C)(C)C)C(=O)O` (stereo not drawn) [compound 713], the IC50 was 26 nM.
`C=CC1CC1(NC(=O)C1CC(Oc2cc(-c3csc(CC)n3)nc3cc(OC)ccc23)CN1C(=O)C(NC(=O)OC(C)(C)C)C(C)(C)C)C(=O)O` (stereo not drawn) [compound 714] showed an IC50 of 12 nM.
`C=CC1CC1(NC(=O)C1CC(Oc2cc(-c3ccccn3)nc3cc(OC)ccc23)CN1C(=O)C(NC(=O)OC(C)(C)C)C(C)(C)C)C(=O)O` (stereo not drawn) [compound 715] showed an IC50 of 31 nM.
In the case of `C=CC1CC1(NC(=O)C1CC(Oc2cc(-c3cccnc3)nc3cc(OC)ccc23)CN1C(=O)C(NC(=O)OC(C)(C)C)C(C)(C)C)C(=O)O` (stereo not drawn) [compound 716], the IC50 is reported as 79 nM.
`C=CC1CC1(NC(=O)C1CC(Oc2cc(-c3csc(NC)n3)nc3cc(OC)ccc23)CN1C(=O)C(NC(=O)OC(C)(C)C)C(C)(C)C)C(=O)O` (stereo not drawn) [compound 717] gave an IC50 of 28 nM.
With `C=CC1C[C@]1(NC(=O)[C@@H]1C[C@@H](Oc2cc(N)nc3cc(OC)ccc23)CN1C(=O)[C@@H](NC(=O)OC(C)(C)C)C(C)(C)C)C(=O)O` (stereo partly drawn) [compound 718] the IC50 was 160 nM.
For `C=CC1CC1(NC(=O)C1CC(Oc2cc(-c3csc(NC(C)=O)n3)nc3cc(OC)ccc23)CN1C(=O)C(NC(=O)OC(C)(C)C)C(C)(C)C)C(=O)O` (stereo not drawn) [compound 719], the IC50 was 18 nM.
In the case of `C=CC1CC1(NC(=O)C1CC(Oc2cc(-c3cnn(C(C)(C)C)c3)nc3cc(OC)ccc23)CN1C(=O)C(NC(=O)OC(C)(C)C)C(C)(C)C)C(=O)O` (stereo not drawn) [compound 720], the IC50 is reported as 30 nM.
Work on `C=CC1CC1(NC(=O)C1CC(Oc2cc(N3CCC(OC)CC3)nc3cc(OC)ccc23)CN1C(=O)C(NC(=O)OC(C)(C)C)C(C)(C)C)C(=O)O` (stereo not drawn) [compound 721] yielded an IC50 of 45 nM.
Compound `C=CC1CC1(NC(=O)C1CC(Oc2cc(-c3csc(NCC)n3)nc3cc(OC)ccc23)CN1C(=O)C(NC(=O)OC(C)(C)C)C(C)(C)C)C(=O)O` (stereo not drawn) [compound 722] has an IC50 of 48 nM.
Work on `C=CC1CC1(NC(=O)C1CC(Oc2cc(-c3csc(NC(C)C)n3)nc3cc(OC)ccc23)CN1C(=O)C(NC(=O)OC(C)(C)C)C(C)(C)C)C(=O)O` (stereo not drawn) [compound 723] yielded an IC50 of 47 nM.
`C=CC1CC1(NC(=O)C1CC(Oc2cc(N3CCC(C)CC3)nc3cc(OC)ccc23)CN1C(=O)C(NC(=O)OC(C)(C)C)C(C)(C)C)C(=O)O` (stereo not drawn) [compound 724] was tested, and the IC50 was 75 nM.
Work on `C=CC1CC1(NC(=O)C1CC(Oc2cc(-c3ccncn3)nc3cc(OC)ccc23)CN1C(=O)C(NC(=O)OC(C)(C)C)C(C)(C)C)C(=O)O` (stereo not drawn) [compound 725] yielded an IC50 of 46 nM.
In the case of `C=CC1C[C@]1(NC(=O)[C@@H]1C[C@@H](Oc2cc(C(C)C)nc3cc(OC)ccc23)CN1C(=O)[C@@H](NC(=O)OC(C)(C)C)C(C)(C)C)C(=O)O` (stereo partly drawn) [compound 726], the IC50 is reported as 250 nM.
Work on `C=CC1CC1(NC(=O)C1CC(Oc2cc(-c3cccnc3)nc3cc(OC)ccc23)CN1C(=O)C(NC(=O)OC(C)(C)C)C(C)(C)C)C(=O)O` (stereo not drawn) [compound 727] yielded an IC50 of 70 nM.
`C=CC1CC1(NC(=O)C1CC(Oc2cc(-c3csc(CS(C)(=O)=O)n3)nc3cc(OC)ccc23)CN1C(=O)C(NC(=O)OC(C)(C)C)C(C)(C)C)C(=O)O` (stereo not drawn) [compound 728] gave an IC50 of 22 nM.
`C=CC1CC1(NC(=O)C1CC(Oc2cc(-c3cnccn3)nc3cc(OC)ccc23)CN1C(=O)C(NC(=O)OC(C)(C)C)C(C)(C)C)C(=O)O` (stereo not drawn) [compound 729] showed an IC50 of 200 nM.
Work on `C=CC1CC1(NC(=O)C1CC(Oc2cc(OC(C)C)nc3cc(OC)ccc23)CN1C(=O)C(NC(=O)OC(C)(C)C)C(C)(C)C)C(=O)O` (stereo not drawn) [compound 730] yielded an IC50 of 42 nM.
`C=CC1CC1(NC(=O)C1CC(Oc2cc(OCCC)nc3cc(OC)ccc23)CN1C(=O)C(NC(=O)OC(C)(C)C)C(C)(C)C)C(=O)O` (stereo not drawn) [compound 731] was tested, and the IC50 was 31 nM.
`C=CC1CC1(NC(=O)C1CC(Oc2cc(-c3csc(-c4csc(C)n4)n3)nc3cc(OC)ccc23)CN1C(=O)C(NC(=O)OC(C)(C)C)C(C)(C)C)C(=O)O` (stereo not drawn) [compound 732] showed an IC50 of 20 nM.
`C=CC1CC1(NC(=O)C1CC(Oc2cc(-c3csc(NC(C)(C)C)n3)nc3cc(OC)ccc23)CN1C(=O)C(NC(=O)OC(C)(C)C)C(C)(C)C)C(=O)O` (stereo not drawn) [compound 733] was tested, and the IC50 was 28 nM.
`C=CC1CC1(NC(=O)C1CC(Oc2cc(SCC)nc3cc(OC)ccc23)CN1C(=O)C(NC(=O)OC(C)(C)C)C(C)(C)C)C(=O)O` (stereo not drawn) [compound 734] showed an IC50 of 44 nM.
Work on `C=CC1CC1(NC(=O)C1CC(Oc2cc(OCC(C)C)nc3cc(OC)ccc23)CN1C(=O)C(NC(=O)OC(C)(C)C)C(C)(C)C)C(=O)O` (stereo not drawn) [compound 735] yielded an IC50 of 58 nM.
Compound `C=CC1C[C@]1(NC(=O)[C@@H]1C[C@@H](Oc2cc(C(C)(C)C)nc3cc(OC)ccc23)CN1C(=O)[C@@H](NC(=O)OC(C)(C)C)C(C)(C)C)C(=O)O` (stereo partly drawn) [compound 736] has an IC50 of 250 nM.

From patent US6534523B1, “Hepatitis C inhibitor tri-peptides” (Boehringer Ingelheim (Canada) Ltd., priority 1998, dated 2003)
